Some test systems named below: 786-0 renal; CCRF-CEM leukemia; EKVX NSCLC; HCC-2998 colon; HOP-62 NSCLC; KM12 colon; NCI-H23 lung; OVCAR-3 ovarian; PC-3 prostate; SF-539 CNS; SK-MEL-2 melanoma; U251 CNS; UACC-257 melanoma; UACC-62 melanoma; COLO 205 colon.
Common to all, as to assay: NCI anticancer screen, dose series, 48 h

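1) Cells in 96-well plates. 2) Compound, 48 h, 5 concentrations. 3) Linear interpolation between surrounding doses. 4) Unreached endpoint = highest concentration. TGI denotes the concentration required for complete inhibition of growth.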

`CC(C)Oc1ccc2c(c1)OCC1Cc3ccccc3OC21` (stereo not given): the TGI in the test on 786-0 renal, with CCRF-CEM leukemia, in the test on EKVX NSCLC, in the test with HCC-2998 colon, in the test on HOP-62 NSCLC and in the test with KM12 colon was over 100 µM in each case. The TGI in the test with NCI-H23 lung, in the test on OVCAR-3 ovarian, in the test on PC-3 prostate, with SF-539 CNS, with SK-MEL-2 melanoma and in the test on U251 CNS was over 100 µM each time. Besides, the TGI in the test on UACC-257 melanoma and in the test with UACC-62 melanoma was over 100 µM each time.

For the compound `Cc1nn(C(=O)Cc2ccccc2)c2c1C(c1ccc(N(C)C)cc1)SC(N)=N2` (stereo not given), the TGI in the test with 786-0 renal, in the test on CCRF-CEM leukemia, in the test on COLO 205 colon, with EKVX NSCLC, in the test with HCC-2998 colon and with HOP-62 NSCLC was over 100 µM throughout. The TGI with KM12 colon, in the test with NCI-H23 lung, in the test with PC-3 prostate, with SF-539 CNS, in the test on UACC-257 melanoma and in the test on UACC-62 melanoma was over 100 µM throughout.

As for `O=c1[nH]c(Nc2nc3ccccc3[nH]2)nc2c1CCC2`, the TGI with 786-0 renal, in the test on CCRF-CEM leukemia, in the test with COLO 205 colon, with HCC-2998 colon, in the test on HOP-62 NSCLC and in the test on NCI-H23 lung was over 100 µM in each case. In addition, the TGI with OVCAR-3 ovarian, in the test with PC-3 prostate, in the test with SF-539 CNS, in the test on SK-MEL-2 melanoma, in the test with U251 CNS and in the test with UACC-257 melanoma was over 100 µM in each case. In addition, the TGI with UACC-62 melanoma is over 100 µM.

Regarding `CCOP(=O)(O)C1C(CO)OC(n2ccc(=O)[nH]c2=O)C1O` (stereo not given), the TGI with 786-0 renal, with CCRF-CEM leukemia, in the test with EKVX NSCLC, with HCC-2998 colon, with HOP-62 NSCLC and in the test on KM12 colon was over 100 µM throughout. Also, the TGI in the test with OVCAR-3 ovarian, with PC-3 prostate, with SF-539 CNS, in the test with SK-MEL-2 melanoma, in the test with UACC-257 melanoma and in the test on UACC-62 melanoma was over 100 µM throughout.

In the case of `O=C(O)[C@@H]1CSCN1C(=O)[C@@H]1CCC(=S)N1`, the TGI in the test on 786-0 renal, in the test with CCRF-CEM leukemia, in the test with HCC-2998 colon, with HOP-62 NSCLC, in the test with KM12 colon and with NCI-H23 lung was over 100 µM in each case. The TGI in the test on OVCAR-3 ovarian, with PC-3 prostate, in the test on SF-539 CNS, with SK-MEL-2 melanoma and in the test with UACC-257 melanoma was over 100 µM in each case.

For `COC(=O)C1=C(C(=O)OC)c2cc(OC)ccc2C(C(=S)N(C)C)S1` (stereo not given), the TGI in the test with 786-0 renal, with COLO 205 colon, in the test with EKVX NSCLC, in the test on HCC-2998 colon, in the test on HOP-62 NSCLC and in the test on KM12 colon was over 100 µM each time. The TGI in the test on NCI-H23 lung, with OVCAR-3 ovarian, with PC-3 prostate, in the test on SK-MEL-2 melanoma, in the test with U251 CNS and in the test on UACC-257 melanoma was over 100 µM each time. The compound further showed a TGI in the test on UACC-62 melanoma of over 100 µM.

Take `C/C=C(/C)C(=O)O[C@H]1C[C@@H]2[C@@H](O)c3occ(C)c3C[C@]2(C)[C@@H](C)C1`: the TGI turned out to be 29.7 µM with 786-0 renal; 47.4 µM in the test with CCRF-CEM leukemia; 30.2 µM in the test on COLO 205 colon; 30.5 µM with EKVX NSCLC; 34 µM in the test on HCC-2998 colon; 31.3 µM in the test with HOP-62 NSCLC. Moreover, the TGI in the test on KM12 colon worked out at 30.2 µM; in the test on NCI-H23 lung it was 33.1 µM; in the test on OVCAR-3 ovarian, 31.1 µM; with PC-3 prostate it was 35.2 µM; with SF-539 CNS it was 31.4 µM; with U251 CNS, 28.3 µM. In addition, the TGI was 23.2 µM with UACC-257 melanoma and 27.2 µM with UACC-62 melanoma.

Consider `Cc1ccccc1N=Nc1ccc(N/N=C2/CCCNC2=O)c(C)c1`, for which the TGI in the test on 786-0 renal, with CCRF-CEM leukemia, in the test with COLO 205 colon, in the test on EKVX NSCLC, with HCC-2998 colon and in the test on HOP-62 NSCLC was over 100 µM in each case. For the same compound, the TGI with KM12 colon, in the test on NCI-H23 lung, in the test with PC-3 prostate, with SK-MEL-2 melanoma, in the test on U251 CNS and in the test with UACC-257 melanoma was over 100 µM throughout. In the test on UACC-62 melanoma, this compound yielded a TGI of over 100 µM.

In the case of `Cc1ccc(N=Nc2c(C)c(C#N)c(=S)n(C3OC(CO)C(O)C(O)C3O)c2C)cc1` (stereo not given), the TGI in the test on 786-0 renal was 83.8 µM; with CCRF-CEM leukemia it was over 100 µM; in the test on COLO 205 colon, over 100 µM; in the test with HCC-2998 colon it was 58.5 µM; in the test on HOP-62 NSCLC it was 84.9 µM; with KM12 colon, over 100 µM. The TGI in the test on NCI-H23 lung was over 100 µM; in the test on OVCAR-3 ovarian, 74.4 µM; with PC-3 prostate, over 100 µM; in the test on SF-539 CNS, over 100 µM; in the test with SK-MEL-2 melanoma, 89.7 µM; in the test with U251 CNS, 52.6 µM. The TGI in the test on UACC-257 melanoma is over 100 µM; in the test with UACC-62 melanoma, 29 µM.

On to `CC(=O)OCCOCn1cnc2c(Cl)nc(Cl)nc21`, for which the TGI in the test on 786-0 renal worked out at 58 µM; in the test on CCRF-CEM leukemia it was 23.7 µM; in the test on COLO 205 colon it was 38.1 µM; with EKVX NSCLC, 7.83 µM; with HCC-2998 colon, 25.6 µM; in the test with HOP-62 NSCLC, 36.4 µM. Besides, the TGI in the test on KM12 colon was found to be 44.1 µM; in the test on NCI-H23 lung, 36.1 µM; in the test with OVCAR-3 ovarian, 27.2 µM; in the test with PC-3 prostate, 36.5 µM; in the test on SK-MEL-2 melanoma it was 55.6 µM; in the test with U251 CNS it was 29.2 µM. Further, the TGI with UACC-257 melanoma came to 36.8 µM; in the test with UACC-62 melanoma it was 30.1 µM.

The values above are taken from PubChem BioAssay (NCI).
